Data as given in PubChem BioAssay AID330 (DTP/NCI, 2004).
Several values for one entry are separate records, joined by “and”; a condition that tells them apart may be missing. Equal values may be shown once. Inconclusive results and toxic doses are left out. Rule for the calls: active = survival T/C of 150% or more; inactive = T/C below 125% in these data.

Test system: P388 leukemia ip, CD2F1 mice, survival T/C
Assay: NCI In Vivo Anticancer Drug Screen. Data for tumor model P388 Leukemia (intraperitoneal) in CD2F1 (CDF1) mice
Conditions: endpoint: median survival time, higher = longer survival
Summary of the method: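 Mice carrying the transplanted tumor received test compound or vehicle. Survival was recorded in each group, and the value is the treated-group measurement divided by that of the vehicle-treated control group.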

[1] = dose: 100.0 mg/kg/injection, schedule: Q04DX003 (ip), vehicle: saline with Tween-80
[2] = dose: 60.0 mg/kg/injection, schedule: Q01DX005 (ip), vehicle: saline with Tween-80
[3] = dose: 120.0 mg/kg/injection, schedule: Q01DX005 (ip), vehicle: saline with Tween-80
[4] = dose: 240.0 mg/kg/injection, schedule: Q01DX005 (ip), vehicle: saline with Tween-80
[5] = dose: 50.0 mg/kg/injection, schedule: Q01DX009 (ip), vehicle: saline
[6] = dose: 100.0 mg/kg/injection, schedule: Q01DX009 (ip), vehicle: saline
[7] = dose: 200.0 mg/kg/injection, schedule: Q01DX009 (ip), vehicle: saline
[8] = dose: 50.0 mg/kg/injection, schedule: Q01DX005 (ip), vehicle: saline with Tween-80
[9] = dose: 100.0 mg/kg/injection, schedule: Q01DX005 (ip), vehicle: saline with Tween-80
[10] = dose: 200.0 mg/kg/injection, schedule: Q01DX005 (ip), vehicle: saline with Tween-80
[11] = dose: 25.0 mg/kg/injection, schedule: Q01DX009 (ip), vehicle: saline with Tween-80
[12] = dose: 50.0 mg/kg/injection, schedule: Q01DX009 (ip), vehicle: saline with Tween-80
[13] = dose: 100.0 mg/kg/injection, schedule: Q01DX009 (ip), vehicle: saline with Tween-80
[14] = dose: 100.0 mg/kg/injection, schedule: Q01DX001 (ip), vehicle: saline with Tween-80
[15] = dose: 400.0 mg/kg/injection, schedule: Q01DX001 (ip), vehicle: saline with Tween-80
[16] = dose: 50.0 mg/kg/injection, schedule: Q01DX005 (ip), vehicle: Klucel (hydroxypropylcellulose) (HPC)
[17] = dose: 100.0 mg/kg/injection, schedule: Q01DX005 (ip), vehicle: Klucel (hydroxypropylcellulose) (HPC)
[18] = dose: 200.0 mg/kg/injection, schedule: Q01DX005 (ip), vehicle: Klucel (hydroxypropylcellulose) (HPC)
[19] = dose: 200.0 mg/kg/injection, schedule: Q01DX001 (ip), vehicle: saline with Tween-80
[20] = dose: 200.0 mg/kg/injection, schedule: Q04DX003 (ip), vehicle: saline with Tween-80
[21] = dose: 50.0 mg/kg/injection, schedule: Q01DX009 (ip), vehicle: Klucel (hydroxypropylcellulose) (HPC)
[22] = dose: 100.0 mg/kg/injection, schedule: Q01DX009 (ip), vehicle: Klucel (hydroxypropylcellulose) (HPC)
[23] = dose: 200.0 mg/kg/injection, schedule: Q01DX009 (ip), vehicle: Klucel (hydroxypropylcellulose) (HPC)

Measured: T/C

CCCCCCC(Cn1ccnc1)c1ccccc1Cl (stereo unspecified)
inactive: dose: 25.0 mg/kg/injection, schedule: Q04DX003 (ip), vehicle: saline with Tween-80 100 % of control | dose: 50.0 mg/kg/injection, schedule: Q04DX003 (ip), vehicle: saline with Tween-80 98 % of control | [1] 106 % of control

CC(C)(C)NC(=O)c1cccc(C(N)=O)n1
inactive: [2] 94 % of control | [3] 93 % of control | [4] 97 % of control

CC(=O)Oc1ccc2c(c1)C(=O)CCCCC(=O)O2
inactive: dose: 100.0 mg/kg/injection, schedule: Q04DX002 (ip), vehicle: Klucel (hydroxypropylcellulose) (HPC) 106 % of control | dose: 200.0 mg/kg/injection, schedule: Q04DX002 (ip), vehicle: Klucel (hydroxypropylcellulose) (HPC) 116 % of control | dose: 400.0 mg/kg/injection, schedule: Q04DX002 (ip), vehicle: Klucel (hydroxypropylcellulose) (HPC) 106 % of control

Nc1cccnc1S(=O)(=O)O
inactive: [5] 94 % of control | [6] 98 % of control | [7] 98 % of control

O=C1c2ccccc2CCC12OC2c1ccc([N+](=O)[O-])cc1 (stereo unspecified)
inactive: dose: 25.0 mg/kg/injection, schedule: Q01DX005 (ip), vehicle: saline with Tween-80 100 % of control | [8] 106 % of control | [9] 110 % of control | [10] 106 % of control

COC(=O)C[N+](=O)[O-]
inactive: [5] 103 % of control | [6] 99 % of control | [7] 110 % of control

c1ccc(-c2nc(-c3ccccc3)c3ccccc3n2)cc1
inactive: [11] 104 % of control | [12] 114 % of control | [13] 114 % of control

CCCCCCCCCCCCCCCCCC[N+]1(CC)CCSCC1
inactive: dose: 25.0 mg/kg/injection, schedule: Q01DX001 (ip), vehicle: saline with Tween-80 97 % of control | dose: 50.0 mg/kg/injection, schedule: Q01DX001 (ip), vehicle: saline with Tween-80 98 % of control | [14] 94 % of control | [15] 86 % of control

CCCCCC1(CCCCCCCC(=O)OCC)OCCO1
inactive: dose: 100.0 mg/kg/injection, schedule: Q04DX003 (ip), vehicle: Klucel (hydroxypropylcellulose) (HPC) 97 % of control | dose: 200.0 mg/kg/injection, schedule: Q04DX003 (ip), vehicle: Klucel (hydroxypropylcellulose) (HPC) 103 % of control | dose: 400.0 mg/kg/injection, schedule: Q04DX003 (ip), vehicle: Klucel (hydroxypropylcellulose) (HPC) 97 % of control

O=c1[nH]c(-c2ccncc2)nnc1-c1ccc(Cl)cc1
inactive: dose: 100.0 mg/kg/injection, schedule: Q04DX002 (ip), vehicle: saline with Tween-80 88 % of control | dose: 200.0 mg/kg/injection, schedule: Q04DX002 (ip), vehicle: saline with Tween-80 93 % of control

COC(=O)c1cccc2c(Br)cc3ccccc3c12
inactive: dose: 150.0 mg/kg/injection, schedule: Q04DX003 (ip), vehicle: Klucel (hydroxypropylcellulose) (HPC) 95 % of control | dose: 300.0 mg/kg/injection, schedule: Q04DX003 (ip), vehicle: Klucel (hydroxypropylcellulose) (HPC) 91 % of control

C=C1CCN(c2ccccc2)C1=O
inactive: dose: 4.0 mg/kg/injection, schedule: Q01DX009 (ip), vehicle: saline + alcohol 107 % of control | dose: 8.0 mg/kg/injection, schedule: Q01DX009 (ip), vehicle: saline + alcohol 92 % of control | dose: 16.0 mg/kg/injection, schedule: Q01DX009 (ip), vehicle: saline + alcohol 105 % of control | dose: 32.0 mg/kg/injection, schedule: Q01DX009 (ip), vehicle: saline + alcohol 101 % of control | dose: 64.0 mg/kg/injection, schedule: Q01DX009 (ip), vehicle: saline + alcohol 107 % of control

CCCCCCCCCCCCCCCC(=O)NC(CCCCN)C(=O)NC(CCCCN)C(=O)OCC (stereo unspecified)
inactive: dose: 12.5 mg/kg/injection, schedule: Q01DX009 (ip), vehicle: saline with Tween-80 101 % of control | [11] 106 % of control

COc1ccc(C(C#N)N2CCCC2)cc1 (stereo unspecified)
inactive: dose: 6.25 mg/kg/injection, schedule: Q04DX003 (ip), vehicle: other 100 % of control | dose: 12.5 mg/kg/injection, schedule: Q04DX003 (ip), vehicle: other 100 % of control

CCCCCCCC(=O)NC(CCSC)C(=O)O (stereo unspecified)
inactive: [16] 107 % of control | [17] 88 % of control | [18] 104 % of control

N#Cc1cccc(/C=C\C(=O)c2ccccc2)c1
inactive: [5] 88 % of control | [6] 100 % of control | [7] 92 % of control

CC(C)OC(=S)SCC(=O)c1ccc(C(F)(F)F)cc1
inactive: [12] 105 % of control | [13] 104 % of control | dose: 200.0 mg/kg/injection, schedule: Q01DX009 (ip), vehicle: saline with Tween-80 98 % of control | dose: 400.0 mg/kg/injection, schedule: Q01DX009 (ip), vehicle: saline with Tween-80 100 % of control

Cn1cnc([N+](=O)[O-])c1Sc1nnc(-c2ccccc2)c(-c2ccccc2)n1
inactive: [16] 88 % of control | [17] 86 % of control | [18] 92 % of control

NC(=O)C#CC(N)=O
inactive: dose: 0.11 mg/kg/injection, schedule: Q01DX009 (ip), vehicle: Klucel (hydroxypropylcellulose) (HPC) 100 % of control and 103 % of control | dose: 0.22 mg/kg/injection, schedule: Q01DX009 (ip), vehicle: Klucel (hydroxypropylcellulose) (HPC) 100 % of control and 119 % of control | dose: 0.45 mg/kg/injection, schedule: Q01DX009 (ip), vehicle: Klucel (hydroxypropylcellulose) (HPC) 103 % of control and 119 % of control | dose: 0.9 mg/kg/injection, schedule: Q01DX009 (ip), vehicle: Klucel (hydroxypropylcellulose) (HPC) 100 % of control and 114 % of control

COc1ccc2c(c1)CN(CCc1ccc([N+](=O)[O-])cc1)CO2
inactive: [8] 96 % of control | [9] 94 % of control | [10] 96 % of control

O=c1nnc(O)c2ccn(O)cc1-2
inactive: [2] 99 % of control | [3] 103 % of control | [4] 99 % of control

CCOC(=O)C12CCC(C(=O)OCC)(CC13SCCS3)C1(C2)SCCS1
inactive: [14] 97 % of control | [19] 99 % of control | [15] 97 % of control

O=C(CCCCl)CC(O)(C(F)(F)F)C(F)(F)F
inactive: [1] 110 % of control | [20] 90 % of control

C/C(=N\NS(=O)(=O)c1ccc(C)cc1)c1cccs1
inactive: [21] 100 % of control | [22] 91 % of control | [23] 92 % of control

COCN1C(=O)CN=C(c2ccccc2)c2cc([N+](=O)[O-])ccc21
inactive: [21] 100 % of control | [22] 101 % of control | [23] 98 % of control

OC(Cc1nc2ccccc2s1)(C(F)(F)F)C(F)(F)F
inactive: [1] 100 % of control | [20] 95 % of control | dose: 400.0 mg/kg/injection, schedule: Q04DX003 (ip), vehicle: saline with Tween-80 95 % of control

O=C([O-])c1cc(Br)cc(Br)c1[OH2+].O=C([O-])c1cc(Br)cc(Br)c1[OH2+].[Mn+2]
inactive: [2] 109 % of control | [3] 115 % of control

FC(F)(F)c1nnc(-c2ccc3ccccc3c2)nn1
inactive: dose: 12.5 mg/kg/injection, schedule: Q01DX009 (ip), vehicle: Klucel (hydroxypropylcellulose) (HPC) 104 % of control | dose: 25.0 mg/kg/injection, schedule: Q01DX009 (ip), vehicle: Klucel (hydroxypropylcellulose) (HPC) 103 % of control | [21] 103 % of control and 122 % of control | [22] 105 % of control and 97 % of control | [23] 100 % of control

Clc1cccc2c(SCCCCCCSc3c4ccccc4nc4c(Cl)cccc34)c3ccccc3nc12
inactive: dose: 60.0 mg/kg/injection, schedule: Q01DX005 (ip), vehicle: Klucel (hydroxypropylcellulose) (HPC) 92 % of control | dose: 120.0 mg/kg/injection, schedule: Q01DX005 (ip), vehicle: Klucel (hydroxypropylcellulose) (HPC) 88 % of control

O[C@]12C=C[C@H](CCCC1)O2
inactive: [8] 107 % of control | [9] 108 % of control | [10] 111 % of control

O=[N+]([O-])c1ccc(/C=C/S(=O)(=O)/C=C\c2ccccc2)cc1
inactive: [8] 101 % of control | [9] 97 % of control | [10] 88 % of control

COc1ccc(/C=N/N=c2/sc3ccccc3n2CC(=O)O)cc1
inactive: [14] 108 % of control | [19] 87 % of control
